Reference: patent publication US10842795B1, “Chemosensitization of resistant Pseudomonas aeruginosa by synthetically related compounds” (King Abdulaziz University, priority 2020, dated 2020)
“Also recorded” adds a separate entry of the source.

What was measured:
[1] = tested on: Pseudomona aeruginosa ATCC 27853; test: Cup diffusion (agar plate diffusion) assay of ciprofloxacin chemosensitization; format: cell-based, Pseudomonas aeruginosa; settings: 200 μM compound with CPX, MDR-Pa, in words
Protocol: ^1H NMR (400 MHz, DMSO-d6) δ 9.88 (s, 1H), 7.66 (dd, J=1.51, 7.78 Hz, 2H), 7.53-7.62 (m, 3H), 7.43-7.51 (m, 3H), 7.37-7.43 (m, 2H), 7.29-7.37 (m, 1H), 7.07-7.12 (m, 2H), 6.95-7.02 (m, 1H), 6.87 (d, J=15.81 Hz, 1H), 4.19 (q, J=7.11 Hz, 2H), 1.25 (t, J=7.15 Hz, 3H). Biological Screening Efflux Pump Inhibition (EPI) Screening Methodology: Bacterial isolate. Pseudomona aeruginosa ATCC 27853 stored at −70° C. in Trypticase soy broth supplemented with 10% glycerol was recovered for testing. Tests performed. Cup diffusion assay was performed to assess interaction between Ciprofloxacin CPX and 24 compounds. CPX minimum inhibitory concentrations (MICs) were determined alone and in the presence of each compound at concentrations ranging from 2000 to 62.5 μg/mL against P. aeruginosa. A fixed concentration of 200 μM of each compound was selected for testing.
Briefly, Petri dishes (90 mm) were filled with 25 mL Muller-Hinton agar containing 1 mL bacterial culture (1×10^6 CFU/mL) and 200 μM of each compound. The strains were inoculated separately. Six holes (5 mm in diameter) were made in the seeded agar plates. The holes were then filled with 20 μL of each concentration of CPX, plate with CPX only was served as control. Dishes were then incubated for 24 h at 37° C. The MIC was recorded as the lowest concentration that inhibits the growth of the bacterial strains. […] All assays were performed in triplicate and MIC's values are given in μg/mL. The inhibition zone was measured using a caliper.
The agar plate diffusion test (Zou, He et al. 2019) was utilized to qualitatively evaluate the ciprofloxacin killing effect on MDR-Pa in absence (control) and in presence of our designed efflux pump inhibitors.

[2] = tested on: MDR-Pa; test: Pseudomonas aeruginosa liquid killing assay on C. elegans (chemosensitization of MDR-Pa); format: in vivo; settings: for Survival x/50 in presence of CAB compounds at 200 μM: 200 μM CAB compound + 100 μg/mL CPX; for C. elegans + 100 μg/mL CPX) MIC: MDR-Pa infected C. elegans, in presence of 100 μg/mL CPX; for Survival x/50 in presence of CAB compounds at 25 μM: 25 μM CAB compound + 100 μg/mL CPX; for Survival x/50 in presence of CAB compounds at 50 μM: 50 μM CAB compound + 100 μg/mL CPX; for Survival x/50 in presence of CAB compounds at 100 μM: 100 μM CAB compound + 100 μg/mL CPX; for Activity in C. elegans model (survival and motility), in words: MDR-Pa infected C. elegans with CPX
Protocol: In vivo EPI activity of compounds that illustrated an MIC against P. aeruginosa. ATCC 27853 were tested on C. elegans using the liquid killing assay (LKA). Briefly, eggs of C. elegans were hatched on lawns of E. coli OP50 on nematode growth medium agar. Worms were grown to L4 stage by incubation at 25° C. for 48 h. Worms were washed off the plate with M9 buffer, deposited onto lawns of E. coli OP50 or P. aeruginosa. ATCC 27853 and the plates were incubated at 25° C. for 16 h. OP50-fed or P. aeruginosa-infected worms were washed from the plate with M9 buffer, allowed to settle to bottom of Eppendorf tubes, and rinsed with M9 buffer. The M9 was then removed and worms were resuspended in 5 mL liquid killing medium (80% M9 and 20% nematode growth medium (NGMII)) and 95 μL aliquots with approximately 50 worms were added to the wells of 96-microtiter plates with or without test compounds at the indicated concentration ranges (starting from 200 μM) in presence of sub-MIC concentration of CPX (100 μg/mL). As a control, worms treated without test compound contained an equivalent amount of DMSO in the assay medium. Plates were scored for live worms at the time of inoculation and incubated at 37° C. for 24 h. Using a dissecting microscope, worms were considered dead if they appeared straight, and alive if they appeared S-shaped and were moving.
C. elegans is a very efficient whole organism test. The worm develops several reliable disease pathways and can be recruited to measure therapeutic activities of compounds. The technique bears several advantages such as low cost, there is no need for special growth or assay conditions (c.f. animal house and expensive caring for in vivo test on mammalians such as rats) (Kaletta and Hengartner 2006) and there are no ethical issues with consuming animals. In our particular assay, C. elegans can be infected and killed by Pa, and therefore, can be used for identifying compounds that help to protect the worm from pathogenic bacteria (Ewbank and Zugasti 2011).
We used the assay to measure the CAB N-alkyl derivatives CAB-30, CAB-35, CAB-36, CAB-37, CAB-38, CAB-40, CAB-41, CAB-42 and CAB-43 ability to protect C. elegans against MDR-Pa.

[3] = Solubility (qualitative statement); format: physicochemical; settings: in words
[4] = target: T1, Pgp (Homo sapiens, UniProt P08183); settings: reported earlier (El-Araby, Omar et al. 2017); cited from earlier work
T1 construct: highly resistant cells K562 Adr500 which keep R123 outside the cancer cells; endogenous in cells; host or cells: K562 Adr500 (adriamycin-resistant human leukemia K562 cells)

[5] = target: T1, Pgp; test: Rhodamine123 (R123) efflux assay in K562 Adr500 cells; format: cell-based; settings: in words
Protocol: The cells (10^5) were counted and suspended in 1 ml RPMI medium. The appropriate CAB derivative (0.5 μM) was added to the medium alongside 1, 5 or 10 μM WYE-354, or 100 μM Verapamil as control inhibitors and incubated for 60 min at 37° C. Upon dye uptake, the cells were pelleted by centrifugation at 250×g for 5 min at 4° C. in a cold centrifuge. The harvested cells were washed twice with 1× ice-cold PBS and resuspended in 1 ml RPMI with the inhibitors alone, and reincubated for an additional 60 min at 37° C. to allow the efflux of R123. The cells were subsequently washed twice with ice-cold PBS and analyzed immediately on a BD FACSAria III. A minimum of 5,000 events were recorded for analysis.
We studied the selectivity of CAB-38 by testing its Pgp inhibition (human efflux protein) activities. This assay was performed by measuring the retention of Rhodamine123 (R123) dye (substrate of Pgp) in human leukemia cell lines K562. The negative control of experiment is composed of highly resistant cells K562 Adr500 which keep R123 outside the cancer cells (FIG. 3A). The positive control is performed by repeating the same experiment after incubation of cells with everolimus sub-cytotoxic dose, a powerful Pgp inhibitor (FIG. 3B). The test compound was incubated with K562 Adr500 and then added R123 dye. […]

T1 sequence (P08183 whole entry): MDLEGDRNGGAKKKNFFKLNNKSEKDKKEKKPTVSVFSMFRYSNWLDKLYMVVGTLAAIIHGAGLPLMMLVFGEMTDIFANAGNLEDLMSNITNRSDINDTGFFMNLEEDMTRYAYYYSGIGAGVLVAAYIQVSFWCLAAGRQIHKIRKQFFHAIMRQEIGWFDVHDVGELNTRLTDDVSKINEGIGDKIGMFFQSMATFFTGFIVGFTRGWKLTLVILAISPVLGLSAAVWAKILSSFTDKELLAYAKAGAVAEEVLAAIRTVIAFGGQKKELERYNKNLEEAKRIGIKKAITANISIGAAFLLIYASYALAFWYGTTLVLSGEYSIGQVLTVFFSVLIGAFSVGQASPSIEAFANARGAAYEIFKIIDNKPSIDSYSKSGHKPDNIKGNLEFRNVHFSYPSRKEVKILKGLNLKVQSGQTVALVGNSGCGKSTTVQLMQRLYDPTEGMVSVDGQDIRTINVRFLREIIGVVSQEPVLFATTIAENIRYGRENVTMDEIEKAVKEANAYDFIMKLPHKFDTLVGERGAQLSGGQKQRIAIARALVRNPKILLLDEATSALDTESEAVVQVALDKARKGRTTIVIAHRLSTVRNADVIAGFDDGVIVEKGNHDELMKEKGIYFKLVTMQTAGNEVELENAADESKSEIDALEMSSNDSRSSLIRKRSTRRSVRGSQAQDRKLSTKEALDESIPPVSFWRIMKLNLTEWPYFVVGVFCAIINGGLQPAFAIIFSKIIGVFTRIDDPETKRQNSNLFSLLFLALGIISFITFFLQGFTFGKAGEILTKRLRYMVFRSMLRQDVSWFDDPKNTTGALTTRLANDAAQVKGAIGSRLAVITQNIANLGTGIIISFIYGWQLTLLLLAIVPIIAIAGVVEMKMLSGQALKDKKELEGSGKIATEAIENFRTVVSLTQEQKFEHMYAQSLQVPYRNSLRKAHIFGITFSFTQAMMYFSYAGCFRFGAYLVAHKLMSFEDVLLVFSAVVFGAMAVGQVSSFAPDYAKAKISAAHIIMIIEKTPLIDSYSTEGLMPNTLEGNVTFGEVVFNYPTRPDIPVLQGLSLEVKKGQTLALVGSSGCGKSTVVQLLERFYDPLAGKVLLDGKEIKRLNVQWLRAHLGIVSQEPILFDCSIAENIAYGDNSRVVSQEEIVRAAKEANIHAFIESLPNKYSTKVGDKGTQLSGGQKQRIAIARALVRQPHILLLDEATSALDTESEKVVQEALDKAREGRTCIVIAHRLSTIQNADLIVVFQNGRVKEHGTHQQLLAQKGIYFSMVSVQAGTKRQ

SMILES	Enhancement of CPX antibiotic activity (chemosensitization, inhibition zone) [1]	Survival x/50 in presence of CAB compounds at 200 μM [2] [x/50]	C. elegans + 100 μg/mL CPX) MIC [2]	Survival x/50 in presence of CAB compounds at 100 μM [2] [x/50]	further results
COc1cccc(NC(=O)/C(=C/C=C/c2ccccc2)NC(=O)C=Cc2ccccc2)c1 [CAB-40, (2Z,4E)-2-cinnamamido-N-(3-methoxyphenyl)-5-phenylpenta-2,4-dienamide]	weak activities	25	200 µM		
COc1ccc(NC(=O)/C(=C/C=C/c2ccccc2)NC(=O)C=Cc2ccccc2)cc1 [CAB-32, (2Z,4E)-2-cinnamamido-N-(4-methoxyphenyl)-5-phenylpenta-2,4-dienamide]	weak activities				
N#Cc1cccc(NC(=O)/C(=C/C=C/c2ccccc2)NC(=O)C=Cc2ccccc2)c1 [CAB-36, (2Z,4E)-2-cinnamamido-N-(3-cyanophenyl)-5-phenylpenta-2,4-dienamide]	moderate chemosensitization activities		Died		Solubility [3]: poor solubility
CCOC(=O)/C(=C/C=C/c1ccccc1)NC(=O)C=Cc1ccccc1 [CAB-21, Ethyl (2Z,4E)-2-Cinnamamido-5-Phenylpenta-2,4-Dienoate]	weak activities				
CCCNC(=O)/C(=C/C=C/c1ccccc1)NC(=O)/C=C/c1ccccc1 [CAB-30]	highest chemosensitization; also recorded: most potent	50	1.56 µM	40	Survival x/50 in presence of CAB compounds at 1.562 μM ([2]; 1.562 μM CAB compound + 100 μg/mL CPX): 20 x/50; Survival x/50 in presence of CAB compounds at 3.125 μM ([2]; 3.125 μM CAB compound + 100 μg/mL CPX): 20 x/50; Survival x/50 in presence of CAB compounds at 6.25 μM ([2]; 6.25 μM CAB compound + 100 μg/mL CPX): 20 x/50; Survival x/50 in presence of CAB compounds at 12.5 μM ([2]; 12.5 μM CAB compound + 100 μg/mL CPX): 20 x/50; Survival x/50 in presence of CAB compounds at 25 μM [2]: 40 x/50; Survival x/50 in presence of CAB compounds at 50 μM [2]: 40 x/50; Activity in C. elegans model (survival and motility), in words [2]: highly potent; Pgp inhibition activities [4]: undesired Pgp inhibition activities
CO[C@H]1C[C@@H]2CC[C@@H](C)[C@@](O)(O2)C(=O)C(=O)N2CCCC[C@H]2C(=O)O[C@H]([C@H](C)C[C@@H]2CC[C@@H](OCCO)[C@H](OC)C2)CC(=O)[C@H](C)/C=C(\C)[C@@H](O)[C@@H](OC)C(=O)[C@H](C)C[C@H](C)/C=C/C=C/C=C/1C [everolimus, reference compound]					Pgp inhibition (retention of R123 dye in cells) [5]: large increase of R123 dye
O=C(C=Cc1ccccc1)N/C(=C\C=C\c1ccccc1)C(=O)N1CCCC1 [CAB-41, N-((2Z,4E)-1-oxo-5-phenyl-1-(pyrrolidin-1-yl)penta-2,4-dien-2-yl)cinnamamide]		25	50 µM	7	Survival x/50 in presence of CAB compounds at 50 μM [2]: 5 x/50
O=C(O)c1cn(C2CC2)c2cc(N3CCNCC3)c(F)cc2c1=O [Control (Cipro Only), ciprofloxacin, reference compound]			Died		
CNC(=O)/C(=C/C=C/c1ccccc1)NC(=O)C=Cc1ccccc1 [CAB-35, (2Z,4E)-2-cinnamamido-N-methyl-5-phenylpenta-2,4-dienamide]		15	200 µM		
CCCCNC(=O)/C(=C/C=C/c1ccccc1)NC(=O)C=Cc1ccccc1 [CAB-42, (2Z,4E)-N-butyl-2-cinnamamido-5-phenylpenta-2,4-dienamide]		45	100 µM	5	
CC(C)NC(=O)/C(=C/C=C/c1ccccc1)NC(=O)C=Cc1ccccc1 [CAB-43, (2Z,4E)-2-cinnamamido-N-isopropyl-5-phenylpenta-2,4-dienamide]			Died		
O=C(C=Cc1ccccc1)N/C(=C\C=C\c1ccccc1)C(=O)NCCO [CAB-37, (2Z,4E)-2-cinnamamido-N-(2-hydroxyethyl)-5-phenylpenta-2,4-dienamide]			50 µM		Activity in C. elegans model (survival and motility), in words [2]: did not show any activity
O=C(C=Cc1ccccc1)N/C(=C\C=C\c1ccccc1)C(=O)N1CCOCC1 [CAB-38, N-((2Z,4E)-1-morpholino-1-oxo-5-phenylpenta-2,4-dien-2-yl)cinnamamide]		40	25 µM	10	Solubility [3]: improved solubility; Survival x/50 in presence of CAB compounds at 25 μM [2]: 3 x/50; Survival x/50 in presence of CAB compounds at 50 μM [2]: 5 x/50; Pgp inhibition (retention of R123 dye in cells) [5]: poor inhibitor of Pgp; also recorded: no inhibition observed; also recorded: not retention of R123 dye
